Data reported in patent publication US8778974B2, “Trisubstituted 1,2,4 triazoles” (Janssen Pharmaceutica NV, priority 2008, dated 2014).

Columns and labels:
[1] = biological target: T1, hα7-wt nAChR-expressing GH4Cl cells (Homo sapiens, UniProt P36544); assay: Patch-clamp current recording (whole-cell), potentiation of choline 1 mM response, PAM type; assay type: cell-based; design: key to Pam type: Type 0 compounds minimally enhance the effect size of the current elicited by 1 mM choline.; Type 1 compounds enhance the effect size of the current elicited by 1 mM choline but minimally alter the kinetics of the receptor.; Type 2 compounds enhance the effect size of the current elicited by 1 mM choline while reducing the rate and/or the extent of desensitization.; Type 3 compounds enhance the effect size of the current elicited by 1 mM choline. When tested at higher concentrations up to 10 μM they completely inhibit desensitization, in particular a 1 mM choline application of 250 milliseconds.; Type 4 compounds allow for an initial desensitization of the receptor followed by a re-opening of the receptor during agonist application; conditions: for EC50: according to Ex. D.2, "<5" = no top plateau reached at maximal concentration, read-out: Potency (pEC50) (converted); for Pam type: patch-clamp current recording, 1 mM choline
T1 construct: expressed in transfected cells
T1 sequence (P36544 23-502): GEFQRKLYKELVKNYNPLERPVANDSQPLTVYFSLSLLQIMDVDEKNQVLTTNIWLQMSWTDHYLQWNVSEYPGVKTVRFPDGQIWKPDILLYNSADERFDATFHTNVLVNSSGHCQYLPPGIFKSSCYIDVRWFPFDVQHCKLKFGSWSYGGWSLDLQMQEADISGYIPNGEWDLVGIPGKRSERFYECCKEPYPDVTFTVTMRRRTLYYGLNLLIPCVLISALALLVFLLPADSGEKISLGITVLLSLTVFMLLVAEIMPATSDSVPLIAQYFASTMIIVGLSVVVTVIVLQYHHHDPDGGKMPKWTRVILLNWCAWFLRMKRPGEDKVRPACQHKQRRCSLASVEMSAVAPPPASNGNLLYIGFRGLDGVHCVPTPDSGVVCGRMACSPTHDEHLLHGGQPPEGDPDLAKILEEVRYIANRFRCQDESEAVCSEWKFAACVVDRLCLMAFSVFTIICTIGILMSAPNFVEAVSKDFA
Summary of the method: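 PAM type assigned qualitatively from current size and desensitization rate/extent when compound is applied simultaneously with 1 mM choline. Recordings: hα7-wt nAChR GH4Cl cells, whole-cell patch clamp, holding −70 mV, series resistance <15 MΩ with ≥60% compensation, pH 7.3 HEPES solutions, solution switching <100 ms.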

[2] = biological target: T2, hα7-wt nAChR-expressing cells (Homo sapiens, UniProt P36544); assay: Ca2+ flux imaging (FDSS) (Protocol B), PAM activity with choline 100 μM; assay type: cell-based; conditions: according to Ex. D.1b; read-out: % Efficacy
T2 construct: expressed in transfected cells; host or cells: hα7-wt nAChR-expressing cells
T2 sequence (P36544 23-502): as above
Description: Ca^2+ Flux Imaging (FDSS) (Protocol B)
• a) Assay buffer • Hanks buffered saline solution (HBSS, Invitrogen, Belgium), supplemented with 10 mM HEPES (Invitrogen, Belgium), CaCl2 to a final concentration of 5 mM, 0.1% Bovine serum albumin (Sigma-Aldrich NV, Belgium). • b) Calcium-sensitive dye—Fluo-4AM • Fluo-4AM (Molecular Probes, USA) was dissolved in DMSO containing 10% Pluronic acid (Molecular Probes, USA) to give a stock solution which was diluted in assay buffer supplemented with 5 mM probenicid (Sigma, Al-drich NV, Belgium) to give a final concentration of 2 μM. • c) 384-well plates • Black 384 well plate black/clear plates, PDL pre-coated (Corning, Incorporated, USA) • d) Calcium flux measurement • A Functional drug screening system (FDSS, Hamamatsu) was used to measure intracellular free-calcium flux signals. Method
Monolayers of hα7-wt nAChR-expressing cells were grown in multi-well plates, in particular black-sided, transparent bottomed 384 well plates coated with poly-D-lysine for 24 hours prior to loading with a fluorescent calcium indicator, in a particular embodiment loading with fluo-4AM for up to 120 minutes.
PAM activity was detected in real time by applying the compounds to be tested to the loaded cells along with a α7 nicotinic receptor agonist during constant monitoring of cellular fluorescence in a FDSS. Compounds giving peak fluorescent responses greater than the response due to agonist alone, were considered to be α7 nAChR PAM's. In a particular embodiment, the α7 nicotinic receptor agonist was choline, a more particular embodiment choline applied at a sub-maximal concentration of 100 μM. In a further setting of the present invention the compounds to be tested were applied prior to the α7 nicotinic receptor agonist, in a particular embodiment up to 10 minutes prior to the agonist.
A control response to choline was calculated on each plate from the difference in peak in fluorescence in wells receiving either choline or assay buffer alone. Compounds of the present invention were tested at a concentration range from 0.01 μM to 30 μM. Compounds were considered to have an interesting activity when they potentiated the choline signal at least with 500% when tested at a concentration of 30 μM (the efficacy of 100 μM choline was defined as 100% in the absence of a PAM). The compounds also have a potentiating effect on the response to choline when measured by whole-cell patch clamp electrophysiology in GH4Cl cells stably over-expressing the human wild-type α7 receptor.

| Compound | EC50 [1] | Pam type [1] | Emax [2] | melting point |
| --- | --- | --- | --- | --- |
| CNC(=O)Cc1nc(Nc2ccc(OC)c(C(F)(F)F)c2)nn1-c1cc(C)nc(C)c1 [E227] | 457 nM | 4 | 654% | 263 °C |
| CCNC(=O)Cc1nc(Nc2ccc(F)c(Cl)c2)nn1-c1cc(C)nc(C)c1 [E250] | 105 nM | – | 546% | 283.2 °C |
| CNC(=O)Cc1nc(Nc2cc(F)cc(Cl)c2)nn1-c1cc(C)nc(C)c1 [E245] | 398 nM | – | 614% | 280.7 °C |
| CNC(=O)Cc1nc(Nc2cc(F)cc(C(F)(F)F)c2)nn1-c1cc(C)nc(C)c1 [E251] | 263 nM | – | 658% | 286.2 °C |
| COc1ccc(Nc2nc(CC(=O)NC3CCC3)n(-c3cc(C)nc(C)c3)n2)cc1C(F)(F)F [E236] | 120 nM | – | 391% | 268.7 °C |
| COc1cc(Cl)cc(Nc2nc(CC(=O)NC3CCC3)n(-c3cc(C)nc(C)c3)n2)c1 [E222] | 83.2 nM | 1 | 440% | 257.8 °C |
| Cc1cc(-n2nc(Nc3ccc(F)c(Cl)c3)nc2CC(=O)NC2CC2)cc(C)n1 [E230] | 141 nM | – | 417% | 287.4 °C |
| Cc1cc(-n2nc(Nc3cc(F)cc(F)c3)nc2CC(=O)NC2CCC2)cc(C)n1 [E239] | 126 nM | – | 372% | 286.7 °C |
| Cc1cc(-n2nc(Nc3ccc(F)c(F)c3)nc2C[C@H](C)O)cc(C)n1 [E141] | 1380 nM | 2 | 961% | 225.7 °C |
| COc1cc(Nc2nc(CC(=O)NC3CCC3)n(-c3cc(C)nc(C)c3)n2)cc(C(F)(F)F)c1 [E244] | 31.6 nM | – | 701% | 278.4 °C |
| Cc1cc(-n2nc(Nc3ccc4c(c3)OC(F)(F)O4)nc2CCC(=O)N(C)C)cc(C)n1 [E235, 3-[(2,2-difluoro-1,3-benzodioxol-5-yl)amino]-1-(2,6-dimethyl-4-pyridinyl)-N,N-dimethyl-1H-1,2,4-triazole-5-propanamide] | 28.8 nM | – | 419% | 178 °C |
| CCNC(=O)Cc1nc(Nc2cc(Cl)cc(OC)c2)nn1-c1cc(C)nc(C)c1 [E219] | 269 nM | 4 | 702% | 254 °C |
| Cc1cc(-n2nc(Nc3cc(F)cc(Cl)c3)nc2CC(=O)NC2CCC2)cc(C)n1 [E248] | 107 nM | – | 421% | 287 °C |
| Cc1cc(-n2nc(Nc3cc(F)c(F)c(F)c3)nc2CC(=O)NC2CCC2)cc(C)n1 [E242] | 95.5 nM | – | 676% | 291.9 °C |
| Cc1cc(-n2nc(Nc3ccc(F)c(F)c3F)nc2CC(=O)NC(C)C)cc(C)n1 [E213] | 468 nM | 2 | 909% | 252.1 °C |
